LC retention time data for 39 compounds are collected here from the RepoRT retention time repository (doi:10.1016/j.chroma.2015.11.014).

A short description of this data set: RP, Agilent ZORBAX Eclipse Plus C18, 150 × 2.1 mm, 3.5 µm, 40 °C, 0.3 mL/min, estimated dead time 1.1 min; A: water + 0.1% formic acid; B: acetonitrile + 0.1% formic acid; gradient (min/%B) 0/2 1/2 2/20 16.5/98 22/98. The conditions noted are these: stereoisomer not certain.

Regarding `O=c1[nH]c2ccccc2s1`, the LC retention time is 7.78 min. As for `O=C(C1CCCCC1)N1CC(=O)N2CCc3ccccc3C2C1` (centres undefined), the LC retention time was 10.8 min. Next, `Cc1c(C(C)C)c(=O)n(-c2ccccc2)n1C`: 9.54 min. Next, `COc1ccc(C(=O)c2ccccc2)c(O)c1`: 13.5 min; `CC(C)(C)[P+](=O)C(C)(C)C`: 7.1 min; `CCOC(=O)Nc1ccc(C)c(NC(=O)OCC)c1`: 10.1 min. Next, `O=C(O)c1cc(N=Nc2ccc(S(=O)(=O)Nc3ccccn3)cc2)ccc1O`: 9.22 min; `CCCCCCCCCCCC[N+](C)(C)Cc1ccccc1`: 11.6 min; `CCN(CC)C(=O)C(C#N)=Cc1cc(O)c(O)c([N+](=O)[O-])c1`: 9.38 min. In the case of `Nc1ncnc2c1ncn2C1CC(O)C(COP(=O)(O)O)O1` (centres undefined), the LC retention time is 2.17 min. For `CCC1(c2cccc(O)c2)CCCCN(C)C1` (centres undefined), the LC retention time was 5.64 min. With `Cc1ccccc1NC(=O)NC1CCCCC1`, the LC retention time is 11 min. In the case of `COc1ccc2c3c1OC1C(=O)C=CC4(O)C(C2)N(C)CCC314` (centres undefined) it was 5.37 min. `CSCC1OC(n2cnc3c(N)ncnc32)C(O)C1O` (centres undefined): the LC retention time is 4.79 min. In the case of `CCCCC(CC)COP(=O)(Oc1ccccc1)Oc1ccccc1` (centres undefined) it was 17 min; in that of `NC1=NC(O)c2ncn(COCCO)c2N1` (centres undefined), 3.12 min.

On to `CN(C)Cc1ccccc1`, for which the LC retention time was 4.42 min. As for `CCCCC[N+](CCCC)(CCCC)CCCC`, the LC retention time was 9.57 min.

In the case of `CCOc1ccc(C[P+](c2ccccc2)(c2ccccc2)c2ccccc2)cc1`, the LC retention time is 9.45 min.

On to `CCCCCCCCCCC(C(=O)OC)[N+](C)(C)Cc1ccccc1` (centres undefined), for which the LC retention time is 11.2 min. Next, `CCN(CC)C(=O)Nc1ccc(OCC(O)CNC(C)(C)C)c(C(C)=O)c1` (centres undefined): 6.53 min; `CCCCCCCCCCCCCCCC(=O)OCC(COP(=O)([O-])OCC[N+](C)(C)C)OC(=O)CCCC(=O)O` (centres undefined): 15.2 min; `CC(=O)Nc1cc(NC(C)=O)cc(C(=O)O)c1`: 5.22 min. Consider `CCC(C)(C)C(=O)OC1CC(C)C=C2C=CC(C)C(CCC3CC(O)CC(=O)O3)C21` (centres undefined), for which the LC retention time is 15.4 min.

As to `CC(C)(c1ccc(OP(=O)(Oc2ccccc2)Oc2ccccc2)cc1)c1ccc(OP(=O)(Oc2ccccc2)Oc2ccccc2)cc1`, the LC retention time was 17.7 min.

Turning to `O=C(c1ccc(O)cc1O)c1ccc(O)cc1O`, the LC retention time was 8.37 min. As for `CN1CC(=O)N2C(Cc3c([nH]c4ccccc34)C2c2ccc3c(c2)OCO3)C1=O` (centres undefined), the LC retention time was 9.8 min. As to `CC(C)CC(C)(O)C#CC(C)(O)CC(C)C` (centres undefined), the LC retention time was 12.4 min. Next, `CCOP(=S)(OCC)Oc1ccc([N+](=O)[O-])cc1`: 14.1 min.

As to `CC(C)NCC(O)COc1cccc2ccccc12` (centres undefined), the LC retention time was 7.36 min. In the case of `CC12CCC3C(CC=C4CC(O)CCC43C)C1CCC2=O` (centres undefined) it was 11.6 min; in that of `CN(CC=CC#CC(C)(C)C)Cc1cccc2ccccc12`, 9.65 min. Next, `Cc1ccc(OP(=O)(Oc2ccc(C)cc2)Oc2ccc(C)cc2)cc1`: 15.9 min. As for `Cc1cc2nc3[nH]c(=O)[nH]c(=O)c3nc2cc1C`, the LC retention time is 7.07 min. Consider `CCN1CCCC1CNC(=O)c1cc(S(N)(=O)=O)ccc1OC` (centres undefined), for which the LC retention time was 4.96 min.

Consider `CCOC(=O)Nc1ccc(N)cc1`, for which the LC retention time was 4.86 min.

Take `CC(C)=CC[P+](c1ccccc1)(c1ccccc1)c1ccccc1`: the LC retention time was 9.02 min. In the case of `Cc1ccc(O)c(-n2nc3ccccc3n2)c1` it was 15.2 min. In the case of `Cc1ncsc1CCO` it was 4.25 min.
